From ChEMBL document CHEMBL6087421, “Development of selective sigma-1 receptor ligands with antiallodynic activity: A focus on piperidine and piperazine scaffolds” (Eur J Med Chem, 2025)
Converted amounts (≈) assume the structure as drawn. The source made the active and inactive calls. No cut-off for these calls is given here.

Experiments:
[1] = biological target: T1, Sigma non-opioid intracellular receptor 1 (Homo sapiens, UniProt Q99720); experiment: Displacement of [3H]-(+)-PTZ from S1R (unknown origin) assessed as inhibition constant by radioligand binding assay
T1 sequence (Q99720 whole entry): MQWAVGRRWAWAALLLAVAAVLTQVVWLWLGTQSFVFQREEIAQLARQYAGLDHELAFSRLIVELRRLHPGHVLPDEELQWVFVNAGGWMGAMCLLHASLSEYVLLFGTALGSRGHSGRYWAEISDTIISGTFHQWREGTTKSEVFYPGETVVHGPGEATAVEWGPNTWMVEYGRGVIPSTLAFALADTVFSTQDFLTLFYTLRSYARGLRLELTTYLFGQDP

HMC3 = experiment: Cytotoxicity against human HMC3 cells assessed as reduction in cell viability at 0.1 to 30 uM incubated for 48 hrs by acridine orange staining based microplate reader analysis; type: toxicity; details: hmc3, 48 h, dose 0.1-30 µM
[2] = biological target: Sigma intracellular receptor 2 (Homo sapiens, UniProt Q5BJF2); experiment: Binding affinity to S2R (unknown origin) assessed as inhibition constant
Sigma intracellular receptor 2, sequence (Q5BJF2 whole entry): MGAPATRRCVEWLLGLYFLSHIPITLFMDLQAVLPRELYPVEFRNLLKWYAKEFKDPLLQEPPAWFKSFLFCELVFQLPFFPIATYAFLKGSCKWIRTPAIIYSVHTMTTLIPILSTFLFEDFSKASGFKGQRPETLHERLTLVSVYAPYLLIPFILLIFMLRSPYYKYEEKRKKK

[3] = biological target: T1, Sigma non-opioid intracellular receptor 1
Description: Binding affinity to S1R (unknown origin) assessed as inhibition constant

[4] = Stability of compound in phosphate buffer at pH 7.4 assessed as half life; type: physicochemical
[5] = Aqueous solubility of compound by UHPLC-PDA analysis; type: physicochemical; details: buffer
[6] = Lipophilicity, log D of the compound in Octanol/PBS buffer at pH 7.4 at 5 to 150 uM by UV-Vis spectrophotometric analysis; type: physicochemical; details: dose 5-150 µM
[7] = Octanol/water partition coefficient, log P of the compound; type: physicochemical
[8] = biological target: Voltage-gated inwardly rectifying potassium channel KCNH2 (Homo sapiens, UniProt Q12809); experiment: Inhibition of hERG in CHO-K1 cells; type: toxicity, cell-based
Voltage-gated inwardly rectifying potassium channel KCNH2, sequence (Q12809 whole entry): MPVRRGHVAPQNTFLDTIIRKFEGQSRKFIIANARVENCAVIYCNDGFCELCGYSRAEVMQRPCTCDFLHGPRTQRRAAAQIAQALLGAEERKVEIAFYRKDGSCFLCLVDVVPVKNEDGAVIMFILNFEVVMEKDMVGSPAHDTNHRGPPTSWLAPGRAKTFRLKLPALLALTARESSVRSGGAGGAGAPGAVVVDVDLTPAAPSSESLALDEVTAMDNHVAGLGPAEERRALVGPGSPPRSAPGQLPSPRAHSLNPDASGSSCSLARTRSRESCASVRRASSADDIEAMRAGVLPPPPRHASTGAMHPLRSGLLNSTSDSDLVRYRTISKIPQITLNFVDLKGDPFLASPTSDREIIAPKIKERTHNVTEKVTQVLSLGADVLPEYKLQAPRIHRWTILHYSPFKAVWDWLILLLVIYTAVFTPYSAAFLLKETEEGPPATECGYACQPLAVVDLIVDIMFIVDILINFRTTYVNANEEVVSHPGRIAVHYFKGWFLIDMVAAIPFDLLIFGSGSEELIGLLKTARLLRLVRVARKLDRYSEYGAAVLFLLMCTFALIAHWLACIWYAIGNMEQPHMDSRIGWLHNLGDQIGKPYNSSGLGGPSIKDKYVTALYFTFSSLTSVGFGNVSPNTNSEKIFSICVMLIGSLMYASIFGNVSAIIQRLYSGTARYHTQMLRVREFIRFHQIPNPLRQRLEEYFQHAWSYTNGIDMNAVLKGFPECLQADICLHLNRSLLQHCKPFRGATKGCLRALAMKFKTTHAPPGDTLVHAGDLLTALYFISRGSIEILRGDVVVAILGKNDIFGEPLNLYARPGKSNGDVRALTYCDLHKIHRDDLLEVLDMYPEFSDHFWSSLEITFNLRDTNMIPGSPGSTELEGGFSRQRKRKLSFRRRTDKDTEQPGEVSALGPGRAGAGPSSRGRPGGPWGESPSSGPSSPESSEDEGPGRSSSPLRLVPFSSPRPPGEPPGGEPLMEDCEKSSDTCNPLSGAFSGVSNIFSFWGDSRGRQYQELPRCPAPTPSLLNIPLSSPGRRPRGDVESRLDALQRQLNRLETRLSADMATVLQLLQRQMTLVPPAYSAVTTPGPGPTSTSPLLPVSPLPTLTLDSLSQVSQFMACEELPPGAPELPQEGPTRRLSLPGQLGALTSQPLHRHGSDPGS

Mus musculus [9] = experiment: Antiallodynic activity in capsaicin-induced wild-type female CD-1 mouse administered subcutaneously and measured after 45 min; type: functional, organism-based; details: route sc
Mus musculus [10] = experiment: Antiallodynic activity in capsaicin-induced wild-type female CD-1 mouse at 10 mg/kg, sc measured after 45 mins relative to control; type: functional; details: 0.75 h
Mus musculus [11] = experiment: Antiallodynic activity in capsaicin-induced wild-type female CD-1 mouse assessed as maximum antiallodynic effect at 10 mg/kg, sc co-administered with PRE-084 measured after 45 mins; type: functional, organism-based
Mus musculus [12] = experiment: Antiallodynic activity in capsaicin-induced wild-type female CD-1 mouse at 5 to 10 mg/kg, sc measured after 45 mins; type: functional, organism-based; details: dose 5-10 mg/kg
Mus musculus [13] = experiment: Antihyperalgesic activity in PGE2-induced wild type female CD-1 mouse assessed as increase in response latency at 10 mg/kg, sc and measured by paw pressure test; type: functional, organism-based
[14] = Cytotoxicity against human WS1 cells assessed as reduction in cell viability incubated for 48 hrs by acridine orange staining based microplate reader analysis; type: toxicity; details: ws1, 48 h
Mus musculus [15] = experiment: Antihyperalgesic activity in PGE2-induced S1R knockout mouse at 10 mg/kg administered subcutaneously; type: functional, organism-based; details: route sc
Mus musculus [16] = experiment: Antiallodynic activity in capsaicin-induced wild-type female CD-1 mouse at 5 to 30 mg/kg, sc measured after 45 mins relative to control; type: functional; details: dose 5-30 mg/kg, 0.75 h
Mus musculus [17] = experiment: Antiallodynic activity in capsaicin-induced wild-type female CD-1 mouse assessed as maximum antiallodynic effect at 30 mg/kg, sc co-administered with PRE-084 measured after 45 mins; type: functional, organism-based
Mus musculus [18] = experiment: Antiallodynic activity in capsaicin-induced wild-type female CD-1 mouse assessed as maximum antiallodynic effect administered subcutaneously and co-administered with PRE-084 measured after 45 mins relative to control; type: functional; details: route sc, 0.75 h
Mus musculus [19] = experiment: Antihyperalgesic activity in PGE2-induced wild type female CD-1 mouse assessed as increase in response latency at 60 mg/kg, sc and measured by paw pressure test; type: functional, organism-based
Mus musculus [20] = experiment: Antihyperalgesic activity in PGE2-induced S1R knockout mouse at 60 mg/kg administered subcutaneously; type: functional, organism-based; details: route sc
[21] = Lipophilicity, log P of the compound; type: physicochemical; details: octanol/water
[22] = Lipophilicity, log D of the compound at pH 7.4; details: buffer
Mus musculus [23] = experiment: Antiallodynic activity in capsaicin-induced wild-type female CD-1 mouse at 2 to 10 mg/kg, sc measured after 45 mins; type: functional, organism-based; details: dose 2-10 mg/kg

For `CN1CCN(CCc2ccc(Cl)c(Cl)c2)CC1`, the Ki [1] was 14 nM, the Activity (HMC3) was “Non-toxic” and the Ki [2] was 6.5 nM. The Ki [3] was 14 nM.

Work on `CCOC(=O)C(c1ccccc1)N(C)C1CCN(Cc2ccccc2)CC1` (racemic) yielded a half-life [4] of 1.59 h, a solubility [5] of 1870 µg/mL (≈ 5.1 mM) and a logD at up to 150 µM [6] of 1.72. For the same compound, the logP [7] was 1.79, the IC50 [8] was 1600 nM and the Activity (HMC3) was “Non-toxic”. The Activity (Mus musculus [9]) was “Dose-dependent-effect”, the Activity (Mus musculus [10]) was 100% and the Activity (Mus musculus [11]) was “Active”. The Activity (Mus musculus [12]) was “Active”, the Activity (Mus musculus [13]) was “Active” and the Activity [14] was “Non-toxic”. The Activity (Mus musculus [15]) was “inactive”.

For `Cc1cc(OCCN2CCOCC2)nn1-c1ccc2ccccc2c1.Cl`, the Activity (Mus musculus [16]) was 100%, the Activity (Mus musculus [9]) was “Dose-dependent-effect” and the Activity (Mus musculus [17]) was “Active”. For the same compound, the Activity (Mus musculus [18]) was 100%, the Activity (Mus musculus [19]) was “Active” and the Activity (Mus musculus [20]) was “inactive”.

Compound `COc1ccc(CCN2CCN(CCCc3ccccc3)CC2)cc1OC` [[11C]SA4503] has a Ki [2] of 90 nM.

For `O=C(CCCN1CCC(O)(c2ccc(Cl)cc2)CC1)c1ccc(F)cc1` [HALOPERIDOL], the logP [21] was 4.03 and the logD [22] was 3.99.

`CCN(CC)C(=O)C(c1ccccc1)N(C)C1CCN(CCc2ccccc2)CC1` (racemic) showed a Ki [1] of 108 nM.

In the case of `CCOC(=O)C(c1ccccc1)N(C)C1CCN(CCc2ccccc2)CC1` (racemic), the Ki [1] is reported as 9.9 nM, the Activity (HMC3) is reported as “Non-toxic” and the Activity (Mus musculus [9]) is reported as “Dose-dependent-effect”. For the same compound, the Activity (Mus musculus [10]) was 100%, the Activity (Mus musculus [11]) was “Active” and the Activity (Mus musculus [23]) was “Active”. For the same compound, the Activity (Mus musculus [13]) was “Active” and the Activity (Mus musculus [15]) was “inactive”.

For `CC(C)=CCN1CC[C@@]2(C)c3cc(O)ccc3C[C@@H]1[C@@H]2C`, the Activity (HMC3) was “Non-toxic”.

`COc1cc2c(cc1OC)C(=O)C(CC1CCN(Cc3ccccc3)CC1)C2` (configuration not stated) [DONEPEZIL] showed a Ki [3] of 15 nM.
